# Experimental data: patent US20120010179A1, “Methods of using a thiazole derivative” (priority 2006, published 2012)
# System: patients with COPD
# Assay: Pulmonary function tests (spirometry FEV1, FVC), tetomilast with inhaled albuterol, crossover study (Example 1)
# Assay type: in vivo, human
# Settings: for Estimated Treatment Effect, change from baseline in FEV1 (tetomilast versus placebo) / Estimated Treatment Effect, change from baseline in FVC (tetomilast versus placebo) / LS Mean change from baseline in FEV1 (repeated measures ANOVA) / LS Mean change from baseline in FVC (repeated measures ANOVA) / Mean (SD) change from baseline in FEV1 / Mean (SD) change from baseline in FVC: steady-state (predose) baseline, Day 8/23; for Estimated Treatment Effect, change from baseline in FEV1 (tetomilast versus placebo) / Estimated Treatment Effect, change from baseline in FVC (tetomilast versus placebo): both with inhaled albuterol; for LS Mean change from baseline in FEV1 (repeated measures ANOVA) / LS Mean change from baseline in FVC (repeated measures ANOVA) / Mean (SD) change from baseline in FEV1 / Mean (SD) change from baseline in FVC: tetomilast 50 mg QD + inhaled albuterol
# Method: Pulmonary function tests were conducted throughout the study to monitor the subjects' respiratory status. Flow volume curves were collected via spirometry. Combivent® (Boehringer Ingleheim Pharmaceuticals, Inc., Ridgefield Conn.), which was used for short-acting rescues as needed throughout the studies described below, was withheld for 6 hours prior to any spirometric testing. Spirometry testing was performed at screening, baseline (Day 0), and at specific times during the treatment period. Each subject could have up to 5 spirometric readings at any study time point. Spirometric readings were performed using equipment from the central provider, Quantum Research, Inc. (Louisville, Colo.). All spirometry readings were recorded and sent to Quantum Research, Inc. for analysis
# For the spirometric readings, the best effort was reported as follows. The highest acceptable forced expiratory volume in one second (FEV1) value was selected as the “best” of the given test session. If two or more FEV1 values were tied as highest, the sum of FEV1 and forced vital capacity (FVC) for those efforts was used. If both conditions were equal between the two efforts, the values reported were taken from the effort that occurred first, chronologically, based on date and time of the effort.
# This study was a multicenter, randomized, double-blind, placebo-controlled, crossover, multiple dose, outpatient study in 27 patients with COPD. All subjects underwent a 28-day washout from inhaled corticosteroids and/or long-acting bronchodilators and/or continuous oxygen therapy (≧16 hours per day) and a 7-day washout from oral beta2-agonists and/or oral theophylline salts prior to baseline. Randomized subjects received an 8-day administration of oral placebo or tetomilast 50 mg oral dose (2×25 mg tablets) once daily (QD). On study Day 8, four consecutive doses of inhaled albuterol (90 μg albuterol base per puff) were given via a metered dose inhaler (MDI) and holding chamber (Ventolin®, GlaxoSmithKline, Research Triangle Park, N.C.), one dose every 30 minutes over the course of 90 minutes at doses of 90 μg+90 μg+180 μg+360 μg for a total dose of 720 μg (albuterol base) or 8 puffs.
# Subjects entered a 7-day washout period (study days 9 through 15) and were then crossed over to the alternate treatment arm (placebo or tetomilast 50 mg oral dose). On study [0105] Day 23, the inhaled albuterol multiple dosing was repeated.
# On Days 1-6 and 17-21, subjects were instructed to take their oral study medication (placebo or tetomilast 50 mg) QD with 8 ounces of water immediately before breakfast. Subjects assigned to the placebo arm received two placebo tablets QD. On Days 7, 8, 16, 22, and 23, subjects took their oral medication (placebo or tetomilast 50 mg) at the clinic in the presence of the study staff.
# Combivent® inhalation aerosol use was allowed for short-acting rescue as needed throughout the study except on study days where PK samples were collected, on days when the multiple doses of inhaled albuterol were administered in the clinic, and/or on days when spirometry testing was performed. On all study days where PK samples were collected, Combivent® was withheld 6 hours prior to the PK draw. Additionally, on study Days 8 and 23 (when the multiple doses of inhaled albuterol were administered in the clinic), Combivent® was withheld 6 hours prior to PK assessment and throughout the duration of the clinic visit. Combivent® was withheld for six hours prior to spirometry testing. The recommended dose of Combivent® Inhalation Aerosol is two inhalations four times a day. In this study, subjects were permitted to take additional inhalations as required; however, the total number of inhalations was not to exceed 12 in 24 hours. Subjects were to “test-spray” three times before using for the first time and in cases where the aerosol had not been used for more than 24 hours. […]
smiles,measurement,setting,value
"CCOc1ccc(-c2nc(-c3cccc(C(=O)O)n3)cs2)cc1OCC [Tetomilast, 2-(3,4-diethoxyphenyl)-4-(2-carboxy-6-pyridyl)thiazole]","FVC steady-state (predose) baseline value, Mean (SD)","predose Day 8/23, on tetomilast 50 mg QD, prior to inhaled albuterol",2.67 (0.88) L
same,"FEV1 steady-state (predose) baseline value, Mean","predose Day 8/23, on tetomilast 50 mg QD, prior to inhaled albuterol, Table 3",1.40 L
same,"FVC steady-state (predose) baseline value, Mean","predose Day 8/23, on tetomilast 50 mg QD, prior to inhaled albuterol, Table 4",2.67 L
same,"Estimated Treatment Effect, change from baseline in FEV1 (tetomilast versus placebo)",5 min postdose,-0.01 L
same,"Estimated Treatment Effect, change from baseline in FVC (tetomilast versus placebo)",5 min postdose,0.01 L
same,LS Mean change from baseline in FEV1 (repeated measures ANOVA),5 min postdose,0.16 L
same,LS Mean change from baseline in FVC (repeated measures ANOVA),5 min postdose,0.30 L
same,Mean (SD) change from baseline in FEV1,5 min postdose,0.16 (0.09) L
same,Mean (SD) change from baseline in FVC,5 min postdose,0.27 (0.25) L
same,"Estimated Treatment Effect, change from baseline in FEV1 (tetomilast versus placebo)",25 min postdose,0.03 L
same,"Estimated Treatment Effect, change from baseline in FVC (tetomilast versus placebo)",25 min postdose,0.03 L
same,LS Mean change from baseline in FEV1 (repeated measures ANOVA),25 min postdose,0.19 L
same,LS Mean change from baseline in FVC (repeated measures ANOVA),25 min postdose,0.29 L
same,Mean (SD) change from baseline in FEV1,25 min postdose,0.19 (0.16) L
same,Mean (SD) change from baseline in FVC,25 min postdose,0.29 (0.37) L
same,"Estimated Treatment Effect, change from baseline in FEV1 (tetomilast versus placebo)",35 min postdose,0.03 L
same,"Estimated Treatment Effect, change from baseline in FVC (tetomilast versus placebo)",35 min postdose,0.01 L
same,LS Mean change from baseline in FEV1 (repeated measures ANOVA),35 min postdose,0.24 L
same,LS Mean change from baseline in FVC (repeated measures ANOVA),35 min postdose,0.39 L
same,Mean (SD) change from baseline in FEV1,35 min postdose,0.24 (0.18) L
same,Mean (SD) change from baseline in FVC,35 min postdose,0.39 (0.36) L
same,"Estimated Treatment Effect, change from baseline in FEV1 (tetomilast versus placebo)",55 min postdose,0.05 L
same,"Estimated Treatment Effect, change from baseline in FVC (tetomilast versus placebo)",55 min postdose,0.07 L
same,LS Mean change from baseline in FEV1 (repeated measures ANOVA),55 min postdose,0.27 L
same,LS Mean change from baseline in FVC (repeated measures ANOVA),55 min postdose,0.37 L
same,Mean (SD) change from baseline in FEV1,55 min postdose,0.26 (0.20) L
same,Mean (SD) change from baseline in FVC,55 min postdose,0.36 (0.37) L
same,"Estimated Treatment Effect, change from baseline in FEV1 (tetomilast versus placebo)",65 min postdose,0.06 L
same,"Estimated Treatment Effect, change from baseline in FVC (tetomilast versus placebo)",65 min postdose,0.13 L
same,LS Mean change from baseline in FEV1 (repeated measures ANOVA),65 min postdose,0.30 L
same,LS Mean change from baseline in FVC (repeated measures ANOVA),65 min postdose,0.50 L
same,Mean (SD) change from baseline in FEV1,65 min postdose,0.30 (0.20) L
same,Mean (SD) change from baseline in FVC,65 min postdose,0.50 (0.40) L
same,"Estimated Treatment Effect, change from baseline in FEV1 (tetomilast versus placebo)",85 min postdose,0.05 L
same,"Estimated Treatment Effect, change from baseline in FVC (tetomilast versus placebo)",85 min postdose,0.05 L
same,LS Mean change from baseline in FEV1 (repeated measures ANOVA),85 min postdose,0.31 L
same,LS Mean change from baseline in FVC (repeated measures ANOVA),85 min postdose,0.45 L
same,Mean (SD) change from baseline in FEV1,85 min postdose,0.31 (0.20) L
same,Mean (SD) change from baseline in FVC,85 min postdose,0.45 (0.39) L
same,"Estimated Treatment Effect, change from baseline in FEV1 (tetomilast versus placebo)",95 min postdose,0.05 L
same,"Estimated Treatment Effect, change from baseline in FVC (tetomilast versus placebo)",95 min postdose,0.12 L
same,LS Mean change from baseline in FEV1 (repeated measures ANOVA),95 min postdose,0.34 L
same,LS Mean change from baseline in FVC (repeated measures ANOVA),95 min postdose,0.53 L
same,Mean (SD) change from baseline in FEV1,95 min postdose,0.34 (0.21) L
same,Mean (SD) change from baseline in FVC,95 min postdose,0.53 (0.42) L
same,"Estimated Treatment Effect, change from baseline in FEV1 (tetomilast versus placebo)",115 min postdose,0.05 L
same,"Estimated Treatment Effect, change from baseline in FVC (tetomilast versus placebo)",115 min postdose,0.11 L
same,LS Mean change from baseline in FEV1 (repeated measures ANOVA),115 min postdose,0.33 L
same,LS Mean change from baseline in FVC (repeated measures ANOVA),115 min postdose,0.51 L
same,Mean (SD) change from baseline in FEV1,115 min postdose,0.33 (0.20) L
same,Mean (SD) change from baseline in FVC,115 min postdose,0.51 (0.48) L
same,"Estimated Treatment Effect, change from baseline in FEV1 (tetomilast versus placebo)",175 min postdose,0.06 L
same,"Estimated Treatment Effect, change from baseline in FVC (tetomilast versus placebo)",175 min postdose,0.07 L
same,LS Mean change from baseline in FEV1 (repeated measures ANOVA),175 min postdose,0.34 L
same,LS Mean change from baseline in FVC (repeated measures ANOVA),175 min postdose,0.50 L
same,Mean (SD) change from baseline in FEV1,175 min postdose,0.34 (0.21) L
same,Mean (SD) change from baseline in FVC,175 min postdose,0.50 (0.38) L
same,"Estimated Treatment Effect, change from baseline in FEV1 (tetomilast versus placebo)",235 min postdose,0.04 L
same,"Estimated Treatment Effect, change from baseline in FVC (tetomilast versus placebo)",235 min postdose,0.01 L
same,LS Mean change from baseline in FEV1 (repeated measures ANOVA),235 min postdose,0.32 L
same,LS Mean change from baseline in FVC (repeated measures ANOVA),235 min postdose,0.39 L
same,Mean (SD) change from baseline in FEV1,235 min postdose,0.32 (0.25) L
same,Mean (SD) change from baseline in FVC,235 min postdose,0.40 (0.50) L
same,"Estimated Treatment Effect, change from baseline in FEV1 (tetomilast versus placebo)",295 min postdose,0.03 L
same,"Estimated Treatment Effect, change from baseline in FVC (tetomilast versus placebo)",295 min postdose,0.11 L
same,LS Mean change from baseline in FEV1 (repeated measures ANOVA),295 min postdose,0.23 L
same,LS Mean change from baseline in FVC (repeated measures ANOVA),295 min postdose,0.35 L
same,Mean (SD) change from baseline in FEV1,295 min postdose,0.23 (0.26) L
same,Mean (SD) change from baseline in FVC,295 min postdose,0.35 (0.50) L
same,"Estimated Treatment Effect, change from baseline in FEV1 (tetomilast versus placebo)",355 min postdose,0.11 L
same,"Estimated Treatment Effect, change from baseline in FVC (tetomilast versus placebo)",355 min postdose,0.17 L
same,LS Mean change from baseline in FEV1 (repeated measures ANOVA),355 min postdose,0.23 L
same,LS Mean change from baseline in FVC (repeated measures ANOVA),355 min postdose,0.32 L
same,Mean (SD) change from baseline in FEV1,355 min postdose,0.23 (0.22) L
same,Mean (SD) change from baseline in FVC,355 min postdose,0.32 (0.43) L
